One assay concerns C2C12 myoblasts. Kind of assay: C2C12 myoblast proliferation assay (methylene blue endpoint). It counts as cell-based, murine. To be noted: recombinant myostatin at 2.25 μg/ml in control medium. How it is done:
A polypeptide of the invention, or a fragment, variant or derivative thereof has the biological function of antagonising myostatin activity. To determine whether a polypeptide of the invention, or a fragment, variant or derivative thereof, is able to antagonise myostatin activity, such activity can be tested by growing myoblasts in the presence or absence (control) of a candidate polypeptide of the invention. […]
The myoblast proliferation assay was carried out in uncoated 96-well microtitre plates. C2C12 cultures were seeded at 1000 cells/well. Following a 16-hour attachment period, test media containing either recombinant wild type myostatin or different myostatin antagonists were added and cells were incubated for a further 48 or 72 hour period. For competition assay, wild type myostatin was competed with different concentrations of myostatin antagonists prior to the addition into the media. After the incubation period, proliferation was assessed using methylene blue photometric endpoint assay as previously described (Thomas et al, 2000).

A further assay has as its system primary myoblasts. Kind of assay: Myoblast chemotaxis assay, effect of recombinant myostatin. It counts as cell-based. The settings on record: recombinant myostatin at 2.5 μg/ml in control (CEE) medium; myoblasts from old (2 year old) mice. How it is done:
Primary myoblasts were cultured from the hind limb muscle of young (4 to 6 week old) or old (24 month old) mice, according to the published protocols (Allen et al., 1997; Partridge, 1997). Briefly, muscles were minced, and digested in 0.2% collagenase type 1A for 90 min. Cultures were enriched for myoblasts by pre-plating on uncoated plates for 3 hours. Myoblast cultures were maintained in growth media (GM) supplemented with 20% fetal calf serum (FCS), 10% HS and 1% CEE on 10% Matrigel coated plates, at 37° C./5% CO2. The extent of culture purity was assessed by flow cytometry analysis of MyoD expression after 48 hours in culture. Cells were harvested using trypsin, suspended at a concentration of 10^6 cells/200 μl and fixed overnight in 5 ml 70% ethanol at −20° C. Staining was performed for 30 min at room temperature using rabbit polyclonal anti-MyoD, 1:200 (Santa Cruz), followed by Alexa fluor 488 anti-rabbit conjugate, 1:500 (Molecular Probes). Analysis was carried out in duplicate with 10^4 cell events collected in each assay. Debris was excluded by gating on forward and side scatter profiles. Cells were analyzed by FACScan (Becton Dickinson). […]
For the chemotaxis assay of myoblasts, a first assay was carried out on myoblasts from 2 year old mice as follows. […] Migrated cells were counted on four representative fields per membrane and the average number plotted. […]

The subject of the next assay is p-FoxO1. Kind of assay: In vitro cancer cachexia trial: p-FoxO1 Western blot in C2C12 myotubes. The format is cell-based, murine. The settings on record: 6 μg/mL recombinant Myostatin; 24 hour treatment; C2C12 myotubes. How it is done: C2C12 cells were differentiated for 72 hours in differentiation media (DMEM+2% HS). Following this period of differentiation the myotubes were tested with recombinant myostatin at 6 μg/mL or a combination of both myostatin and 300 recombinant protein at 30, 60, 90 or 120 μg/mL for further 24 hours to determine if 300 can rescue myostatin-mediated muscle wasting in vitro. Gene expression changes of intermediate signalling molecules critical in myostatin-mediated cachexia were analysed. Therefore, protein was isolated from cells and Western blot analysis was performed to measure protein expression levels for p-FoxO1, which we have shown to be a critical signalling intermediates in Myostatin-mediated cachexia (McFarlane et al 2006).
A general note: In western blotting, separated proteins are transferred to a membrane and probed.

As for “recombinant myostatin: recombinant wild type myostatin (GDF-8), negative regulator of muscle growth, added to inhibit myoblasts [reference compound]”, the “inhibition of myoblast proliferation” value with C2C12 myoblasts (after 48 hours) is 25%; in the assay with C2C12 myoblasts (after 72 hours), “about 10%”. Besides, the “decrease in the number of migrated myoblasts” value in the assay with primary myoblasts is on record as “approximately 78%”. Moreover, the “p-FoxO1 expression (normalised to total FoxO1)” value in the assay on p-FoxO1 is on record as “down-regulation”.
